Key:
[1] = molecular target: T1, PLK1 (Homo sapiens, UniProt P53350); test: Luciferase assay for PLK1 in HeLa LgBit (Plk1-HiBit KI) cell line; type: cell-based; settings: 300 nM compound, luminescence after 9 hours
T1 construct: endogenous in cells; host or cells: HeLa cells stably expressing LgBit, with CRISPR/Cas9 knock-in of HiBit at the endogenous PLK1 locus
Procedure: 2. Luciferase Assay for PLK1
(1) Preparation and Culture of HeLa LgBit (Plk1-HiBit KI) Cell Line
A HeLa cell line in which the LgBit vector was transfected and expressed stably was prepared. Then, after constructing gRNA and donor to express the HiBit amino acid sequence behind the C-terminal of the Plk1 gene, which was inherent in the cell, it was inserted into the cell together with a vector capable of expressing CRISPR/Cas9. Only the cells in which the insertion was completed and knock-in had progressed were selected, sub-cultured and used.
(2) Treatment of Compounds of the Present Invention and Method of Luciferase Assay
In the case of HeLa LgBit (Plk1-HiBit KI), the compounds were treated after being released after thymidine block, and the process was as follows. Thymidine (Sigma-Aldrich Cat. No. T9250-5G) was completely dissolved in DW and used in the experiment. For thymidine block, the products were treated with 2 mM of thymidine and then incubated for 24 hours. For release and chemical treatment, the medium was suctioned and washed with 1×PBS. TrypLE™ was added and incubated in 37° C. CO2 incubator for 5 min. Cells neutralized by adding complete media were counted through a counter. For each well of a 96-well culture plate (SPL), 3.3×10^4 cells and a total medium volume of 150 μL were seeded and incubated in a CO2 incubator.
Each cell line was incubated in a CO2 incubator for 18 hours, and Endurazine was added to each well to make up 4% of the total volume. After adding the compound of the present invention in a 96-well white plate (SPL) to a concentration of 300 nM, the wavelength of the plate reader (BMG Labtech, CLARIOstar Plus) was set to […], and then the luminescence was tracked in real time.
The results are shown in Table 2 below and FIGS. 1 and 2.
In Table 2, Activity represents the ratio of the luminescence value of each Exemplary Compound treatment group to DMSO treatment group (+++: <0.3, ++ <0.6, + <0.7).

[2] = Cell viability assay for MRC-5 cell line; settings: human
Procedure: Cell Viability Assay for MRC-5 Cell Line
(1) Culture of MRC-5 Cell Line
The MRC-5 cell line was purchased from Korea Cell Line Bank (KCLB), Seoul, Korea. Passage of cultured cells was maintained within P15.
6×10^3 cells were seeded for each well of a 96-well plate (SPL), and the cells were cultured in total volume of 150 μL.
Each well was mixed with a medium and treated, and the volume was set to 50 μL, so that the total volume of each well was 200 μL. Then, it was cultured in 37° C.
The following compounds were used as comparative examples, and the cell viability assay was performed in the same manner as in the compounds of Examples.
(3) Cytotoxicity Experiment
After treating EZ-Cytox (DOGEN, Cat. NO. EZ-3000, Lot. No. DLS2112) 20 μL in each well of completely cultured plate, it was cultured in 37° C. CO2 incubator for 4 hours. […] The data were converted into graphs using the Prism (ver. 9) program.

[3] = test system: H526 cell line; test: Cell viability assay for H526 cell line; type: cell-based; settings: Homo sapiens, NCI-H526, 120 h; H526 cells, 5 days, EZ-Cytox, 0.46-3000 nM
Procedure: 3. Cell Viability Assay for H526 Cell Line
(1) Culture of NCI-H526 Cell Line
(2) Treatment of Compounds of the Present Invention and Method of Cell Viability Assay
After treating the compound to each well to make the total volume of 200 μL, it was cultured in a CO2 incubator (Thermo Fisher Science, Cat. No. 4111) for 5 days.
The absorbance of the completely cultured sample was measured by setting the wavelength of a plate reader (BMG Labtech, CLARIOstar Plus) to […], and was measured after shaking for 3 minutes in a plate reader before measurement.
In Table 3, Activity represents IC50 value of each Exemplary Compound treatment group to H526 cell line (A: <30 nM, B: <50 nM, C: <100 nM, D: <200 nM, E: <400 nM).

T1 sequence (P53350 whole entry): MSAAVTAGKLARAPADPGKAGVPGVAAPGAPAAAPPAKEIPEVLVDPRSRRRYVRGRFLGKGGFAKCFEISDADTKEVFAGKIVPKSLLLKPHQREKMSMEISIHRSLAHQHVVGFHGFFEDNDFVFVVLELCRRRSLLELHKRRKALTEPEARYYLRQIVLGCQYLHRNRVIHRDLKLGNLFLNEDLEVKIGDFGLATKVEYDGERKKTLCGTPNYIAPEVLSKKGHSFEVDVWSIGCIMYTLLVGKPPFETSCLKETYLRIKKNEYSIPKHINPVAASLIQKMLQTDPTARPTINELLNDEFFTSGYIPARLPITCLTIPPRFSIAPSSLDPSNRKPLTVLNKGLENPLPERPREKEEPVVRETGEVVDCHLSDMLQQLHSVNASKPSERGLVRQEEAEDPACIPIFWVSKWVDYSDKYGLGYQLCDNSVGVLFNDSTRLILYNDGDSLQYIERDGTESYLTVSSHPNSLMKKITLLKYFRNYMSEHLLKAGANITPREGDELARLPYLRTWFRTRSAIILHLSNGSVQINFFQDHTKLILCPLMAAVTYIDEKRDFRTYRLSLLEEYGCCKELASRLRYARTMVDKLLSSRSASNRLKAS

COc1cc(C(=O)NC2CCN(C(=O)CCCOc3cccc(C4CCC(=O)NC4=O)c3)CC2)ccc1Nc1ncc2c(n1)N(C(C)C)CC(F)(F)C(=O)N2C (stereo not drawn) [Compound 1, 4-((7,7-difluoro-9-isopropyl-5-methyl-6-oxo-6,7,8,9-tetrahydro-5H-pyrimido[4,5-b][1,4]diazepin-2-yl)amino)-N-(1-(4-(3-(2,6-dioxopiperidin-3-yl)phenoxy)butanoyl)piperidin-4-yl)-3-methoxybenzamide]
Activity: ratio of the luminescence value of each Exemplary Compound treatment group to DMSO treatment group [1]: +++ (+++: <0.3)
IC50 at 5 days ([2]; MRC-5 cells (normal cell line)): > 10 µM
IC50 [3]: < 0.05 µM

COc1cc(C(=O)NC2CCN(C(=O)CCN3CCN(c4ccc(C5CCC(=O)NC5=O)cc4)CC3)CC2)ccc1Nc1ncc2c(n1)N(C(C)C)CC(F)(F)C(=O)N2C (stereo not drawn) [Compound 2, 4-((7,7-difluoro-9-isopropyl-5-methyl-6-oxo-6,7,8,9-tetrahydro-5H-pyrimido[4,5-b][1,4]diazepin-2-yl)amino)-N-(1-(3-(4-(4-(2,6-dioxopiperidin-3-yl)phenyl)piperazin-1-yl)propanoyl)piperidin-4-yl)-3-methoxybenzamide]
Activity: ratio of the luminescence value of each Exemplary Compound treatment group to DMSO treatment group [1]: ++ (++ <0.6)
IC50 at 5 days ([2]; MRC-5 cells (normal cell line)): > 10 µM
IC50 [3]: < 0.03 µM

COc1cc(C(=O)NC2CCN(C(=O)CCN3CCN(c4ccc(C5CCC(=O)NC5=O)cc4)CC3)CC2)ccc1Nc1ncc2c(n1)N(C(C)C)CC1(CC1)C(=O)N2C (stereo not drawn) [Compound 3, N-(1-(3-(4-(4-(2,6-dioxopiperidin-3-yl)phenyl)piperazin-1-yl)propanoyl)piperidin-4-yl)-4-((9′-isopropyl-5′-methyl-6′-oxo-5′,6′,8′,9′-tetrahydrospiro[cyclopropane-1,7′-pyrimido[4,5-b][1,4]diazepin]-2′-yl)amino)-3-methoxybenzamide]
Activity: ratio of the luminescence value of each Exemplary Compound treatment group to DMSO treatment group [1]: ++ (++ <0.6)
IC50 at 5 days ([2]; MRC-5 cells (normal cell line)): > 10 µM
IC50 [3]: < 0.1 µM

COc1cc(C(=O)NC2CCN(C(=O)CCN3CCN(c4cccc(C5CCC(=O)NC5=O)c4)CC3)CC2)ccc1Nc1ncc2c(n1)N(C(C)C)CC(F)(F)C(=O)N2C (stereo not drawn) [Compound 4, 4-((7,7-difluoro-9-isopropyl-5-methyl-6-oxo-6,7,8,9-tetrahydro-5H-pyrimido[4,5-b][1,4]diazepin-2-yl)amino)-N-(1-(3-(4-(3-(2,6-dioxopiperidin-3-yl)phenyl)piperazin-1-yl)propanoyl)piperidin-4-yl)-3-methoxybenzamide]
Activity: ratio of the luminescence value of each Exemplary Compound treatment group to DMSO treatment group [1]: ++ (++ <0.6)
IC50 at 5 days ([2]; MRC-5 cells (normal cell line)): > 10 µM
IC50 [3]: < 0.03 µM

COc1cc(C(=O)NC2CCN(C(=O)CCN3CCN(c4cccc(C5CCC(=O)NC5=O)c4)CC3)CC2)ccc1Nc1ncc2c(n1)N(C(C)C)CC1(CC1)C(=O)N2C (stereo not drawn) [Compound 5, N-(1-(3-(4-(3-(2,6-dioxopiperidin-3-yl)phenyl)piperazin-1-yl)propanoyl)piperidin-4-yl)-4-((9′-isopropyl-5′-methyl-6′-oxo-5′,6′,8′,9′-tetrahydrospiro[cyclopropane-1,7′-pyrimido[4,5-b][1,4]diazepin]-2′-yl)amino)-3-methoxybenzamide]
Activity: ratio of the luminescence value of each Exemplary Compound treatment group to DMSO treatment group [1]: ++ (++ <0.6)
IC50 at 5 days ([2]; MRC-5 cells (normal cell line)): > 10 µM
IC50 [3]: < 0.2 µM

COc1cc(C(=O)NN2CCN(C(=O)CCC3CCN(c4ccc(C5CCC(=O)NC5=O)cc4F)CC3)CC2)ccc1Nc1ncc2c(n1)N(C(C)C)CC(F)(F)C(=O)N2C (stereo not drawn) [Compound 11, 4-((7,7-difluoro-9-isopropyl-5-methyl-6-oxo-6,7,8,9-tetrahydro-5H-pyrimido[4,5-b][1,4]diazepin-2-yl)amino)-N-(1-(3-(1-(4-(2,6-dioxopiperidin-3-yl)-2-fluorophenyl)piperidin-4-yl)propanoyl)piperazin-1-yl)-3-methoxybenzamide]
Activity: ratio of the luminescence value of each Exemplary Compound treatment group to DMSO treatment group [1]: ++ (++ <0.6)
IC50 at 5 days ([2]; MRC-5 cells (normal cell line)): > 10 µM
IC50 [3]: < 0.05 µM

COc1cc(C(=O)NC2CC3(CCN(CC4CCN(c5ccc(C6CCC(=O)NC6=O)cc5F)CC4)CC3)C2)ccc1Nc1ncc2c(n1)N(C(C)C)CC(F)(F)C(=O)N2C (stereo not drawn) [Compound 13, 4-((7,7-difluoro-9-isopropyl-5-methyl-6-oxo-6,7,8,9-tetrahydro-5H-pyrimido[4,5-b][1,4]diazepin-2-yl)amino)-N-(7-((1-(4-(2,6-dioxopiperidin-3-yl)-2-fluorophenyl)piperidin-4-yl)methyl)-7-azaspiro[3.5]nonan-2-yl)-3-methoxybenzamide]
Activity: ratio of the luminescence value of each Exemplary Compound treatment group to DMSO treatment group [1]: ++ (++ <0.6)
IC50 at 5 days [2]: > 10 µM
IC50 [3]: < 0.03 µM

COc1cc(C(=O)NN2CCC(CN3CCN(c4ccc(C5CCC(=O)NC5=O)cc4F)CC3)C(F)(F)C2)ccc1Nc1ncc2c(n1)N(C(C)C)CC(F)(F)C(=O)N2C (stereo not drawn) [Compound 16, 4-((7,7-difluoro-9-isopropyl-5-methyl-6-oxo-6,7,8,9-tetrahydro-5H-pyrimido[4,5-b][1,4]diazepin-2-yl)amino)-N-(4-((4-(4-(2,6-dioxopiperidin-3-yl)-2-fluorophenyl)piperazin-1-yl)methyl)-3,3-difluoropiperidin-1-yl)-3-methoxybenzamide]
Activity: ratio of the luminescence value of each Exemplary Compound treatment group to DMSO treatment group [1]: ++ (++ <0.6)
IC50 at 5 days ([2]; MRC-5 cells (normal cell line)): > 10 µM
IC50 [3]: < 0.1 µM

COc1cc(C(=O)NN2CC(F)(F)CC2CCN2CCN(c3ccc(C4CCC(=O)NC4=O)cc3F)CC2)ccc1Nc1ncc2c(n1)N(C(C)C)CC(F)(F)C(=O)N2C (stereo not drawn) [Compound 17, 4-((7,7-difluoro-9-isopropyl-5-methyl-6-oxo-6,7,8,9-tetrahydro-5H-pyrimido[4,5-b][1,4]diazepin-2-yl)amino)-N-(2-(2-(4-(4-(2,6-dioxopiperidin-3-yl)-2-fluorophenyl)piperazin-1-yl)ethyl)-4,4-difluoropyrrolidin-1-yl)-3-methoxybenzamide]
Activity: ratio of the luminescence value of each Exemplary Compound treatment group to DMSO treatment group [1]: ++ (++ <0.6)
IC50 at 5 days ([2]; MRC-5 cells (normal cell line)): > 10 µM
IC50 [3]: < 0.05 µM

COc1cc(C(=O)NN2CCC(F)(CN3CCN(c4ccc(C5CCC(=O)NC5=O)cc4F)CC3)CC2)ccc1Nc1ncc2c(n1)N(C(C)C)CC(F)(F)C(=O)N2C (stereo not drawn) [Compound 18, 4-((7,7-difluoro-9-isopropyl-5-methyl-6-oxo-6,7,8,9-tetrahydro-5H-pyrimido[4,5-b][1,4]diazepin-2-yl)amino)-N-(4-((4-(4-(2,6-dioxopiperidin-3-yl)-2-fluorophenyl)piperazin-1-yl)methyl)-4-fluoropiperidin-1-yl)-3-methoxybenzamide]
Activity: ratio of the luminescence value of each Exemplary Compound treatment group to DMSO treatment group [1]: ++ (++ <0.6)
IC50 at 5 days ([2]; MRC-5 cells (normal cell line)): > 10 µM
IC50 [3]: < 0.1 µM

COc1cc(C(=O)NC2CC3(CCN(CC4CCN(c5ccc(C6CCC(=O)NC6=O)cc5F)CC4)CC3)C2)ncc1Nc1ncc2c(n1)N(C(C)C)CC(F)(F)C(=O)N2C (stereo not drawn) [Compound 22, 5-((7,7-difluoro-9-isopropyl-5-methyl-6-oxo-6,7,8,9-tetrahydro-5H-pyrimido[4,5-b][1,4]diazepin-2-yl)amino)-N-(7-((1-(4-(2,6-dioxopiperidin-3-yl)-2-fluorophenyl)piperidin-4-yl)methyl)-7-azaspiro[3.5]nonan-2-yl)-4-methoxypicolinamide]
Activity: ratio of the luminescence value of each Exemplary Compound treatment group to DMSO treatment group [1]: ++ (++ <0.6)
IC50 at 5 days [2]: > 10 µM
IC50 [3]: < 0.05 µM

COc1cc(C(=O)NN2CC3(CCN(CC4CCN(c5ccc(C6CCC(=O)NC6=O)cc5F)CC4)CC3)C2)ccc1Nc1ncc2c(n1)N(C(C)C)CC(F)(F)C(=O)N2C (stereo not drawn) [Compound 23, 4-((7,7-difluoro-9-isopropyl-5-methyl-6-oxo-6,7,8,9-tetrahydro-5H-pyrimido[4,5-b][1,4]diazepin-2-yl)amino)-N-(7-((1-(4-(2,6-dioxopiperidin-3-yl)-2-fluorophenyl)piperidin-4-yl)methyl)-2,7-diazaspiro[3.5]nonan-2-yl)-3-methoxybenzamide]
Activity: ratio of the luminescence value of each Exemplary Compound treatment group to DMSO treatment group [1]: +++ (+++: <0.3)
IC50 at 5 days ([2]; MRC-5 cells (normal cell line)): > 10 µM
IC50 [3]: < 0.03 µM

From patent US11939334B2, “Substituted pyrimido[4,5-b][1,4]diazepines as PLK1 degradation inducers” (UPPTHERA, INC., priority 2021, dated 2024)
